Test results as given in ChEMBL document CHEMBL1125643, “N-(5-fluorobenzothiazol-2-yl)-2-guanidinothiazole-4-carboxamide. A novel, systemically active antitumor agent effective against 3LL Lewis lung carcinoma” (J Med Chem, 1991).

How the values were obtained:
[1] = Drug related lethality is percent animals in treated groups dying prior to first tumor related death in untreated groups measured in BDF1 mice after ip administration at 400 mg/kg dose days 3 after tumor challenge; conditions: BDF1, mus sp., in vivo
[2] = Drug related lethality is percent animals in treated groups dying prior to first tumor related death in untreated groups measured in BDF1 mice after ip administration at 300 mg/kg dose days 3 after tumor challenge; conditions: BDF1, mus sp., in vivo
Mus sp. [3] = experiment: Drug related lethality is percent animals in treated groups dying prior to first tumor related death in untreated groups measured in BDF1 mice after ip administration at 10 mg/kg dose 3 days after tumor challenge; type: toxicity, organism-based; design: dose 10 mg/kg, route intraperitoneal; conditions: in vivo, 72 h
Mus sp. [4] = experiment: Drug related lethality is percent animals in treated groups dying prior to first tumor related death in untreated groups measured in BDF1 mice after ip administration at 5 mg/kg dose 3 days after tumor challenge; type: toxicity, organism-based; design: dose 5 mg/kg, route intraperitoneal; conditions: in vivo, 72 h
[5] = Drug related lethality is percent animals in treated groups dying prior to first tumor related death in untreated groups measured in BDF1 mice after iv administration at 18 mg/kg dose 3 days after tumor challenge; type: toxicity, organism-based; design: dose 18 mg/kg, route intravenous; conditions: BDF1, mus sp., in vivo, read-out: Lethality
[6] = Drug related lethality is percent animals in treated groups dying prior to first tumor related death in untreated groups measured in BDF1 mice after iv administration at 2.5 mg/kg dose 3 days after tumor challenge; type: toxicity, organism-based; design: dose 2.5 mg/kg, route intravenous; conditions: BDF1, mus sp., in vivo, read-out: Lethality
[7] = Drug related lethality is percent animals in treated groups dying prior to first tumor related death in untreated groups measured in BDF1 mice after iv administration at 25 mg/kg dose 3 days after tumor challenge; type: toxicity, organism-based; design: dose 25 mg/kg, route intravenous; conditions: BDF1, mus sp., in vivo, read-out: Lethality
Mus sp. [8] = experiment: In vivo activity measured against 3LL metastasis in BDF1 mice after iv administration at 5 mg/kg dose, dosing on days 3 after tumor challenge; type: functional
[9] = Drug related lethality is percent animals in treated groups dying prior to first tumor related death in untreated groups measured in BDF1 mice after iv administration at 10 mg/kg dose 3 days after tumor challenge; type: toxicity, organism-based; design: dose 10 mg/kg, route intravenous; conditions: BDF1, mus sp., in vivo, read-out: Lethality
Mus sp. [10] = experiment: In vivo activity against 3LL metastasis in BDF1 mice after iv administration at 18 mg/kg dose, dosing on days 3 after tumor challenge; type: functional
Mus sp. [11] = experiment: In vivo activity measured against 3LL metastasis in BDF1 mice after iv administration at 25 mg/kg dose, dosing on days 3 after tumor challenge; type: functional
Mus sp. [12] = experiment: In vivo activity measured against 3LL metastasis in BDF1 mice after iv administration at 15 mg/kg dose, dosing on days 3 after tumor challenge; type: functional
[13] = Drug related lethality is percent animals in treated groups dying prior to first tumor related death in untreated groups measured in BDF1 mice after iv administration at 5 mg/kg dose 3 days after tumor challenge; type: toxicity, organism-based; design: dose 5 mg/kg, route intravenous; conditions: BDF1, mus sp., in vivo, read-out: Lethality
[14] = Drug related lethality is percent animals in treated groups dying prior to first tumor related death in untreated groups measured in BDF1 mice after iv administration at 15 mg/kg dose 3 days after tumor challenge; type: toxicity, organism-based; design: dose 15 mg/kg, route intravenous; conditions: BDF1, mus sp., in vivo, read-out: Lethality
Mus sp. [15] = experiment: In vivo activity measured against 3LL metastasis in BDF1 mice after iv administration at 20 mg/kg dose, dosing on days 3 after tumor challenge; type: functional
[16] = Drug related lethality is percent animals in treated groups dying prior to first tumor related death in untreated groups measured in BDF1 mice after iv administration at 20 mg/kg dose 3 days after tumor challenge; type: toxicity, organism-based; design: dose 20 mg/kg, route intravenous; conditions: BDF1, mus sp., in vivo, read-out: Lethality
Mus sp. [17] = experiment: In vivo activity measured against 3LL metastasis in BDF1 mice after iv administration at 2.5 mg/kg dose, dosing on days 3 after tumor challenge; type: functional
[18] = Drug related lethality is percent animals in treated groups dying prior to first tumor related death in untreated groups measured in BDF1 mice after iv administration at 30 mg/kg dose 3 days after tumor challenge; type: toxicity, organism-based; design: dose 30 mg/kg, route intravenous; conditions: BDF1, mus sp., in vivo, read-out: Lethality
Mus sp. [19] = experiment: In vivo activity against 3LL metastasis in BDF1 mice after iv administration at 10 mg/kg dose, dosing on days 3 after tumor challenge; type: functional

O=P1(N(CCCl)CCCl)NCCCO1 (centres undefined) [CYCLOPHOSPHAMIDE ANHYDROUS]
mortality [1]: 14%
mortality [2]: 0%

CISPLATIN
Lethality (Mus sp. [3]): 0%
Lethality (Mus sp. [4]): 0%

COc1cccc2c1C(=O)c1c(O)c3c(c(O)c1C2=O)C[C@@](O)(C(=O)CO)C[C@@H]3O[C@H]1C[C@H](N)[C@H](O)[C@H](C)O1 [DOXORUBICIN]
mortality at 72 h [5]: 0%
mortality at 72 h [6]: 0%
mortality at 72 h [7]: 72%
T/C (Mus sp. [8]): 115%
mortality at 72 h [9]: 0%
T/C (Mus sp. [10]): 191%
T/C (Mus sp. [11]): 197%
T/C (Mus sp. [12]): 215%
mortality at 72 h [13]: 0%
mortality at 72 h [14]: 21%
T/C (Mus sp. [15]): 189%
mortality at 72 h [16]: 15%
T/C (Mus sp. [17]): 120%
mortality at 72 h [18]: 100%
T/C (Mus sp. [19]): 137%
